Square brackets hold non-standard residues; d marks the D form. Peptide text beside a SMILES is read from it. * marks the point of attachment. X1 = CN1/C(=C/C=C/C=C/C2=[N+](CCCCCC(=O)*)c3ccc(S(=O)(=O)[O-])cc3C2(C)C)C(C)(C)c2cc(S(=O)(=O)O)ccc21; Hyp = O=C(O)[C@@H]1C[C@@H](O)CN1; Nlys = NCCCCNCC(=O)O; Ahx = NCCCCCC(=O)O
Assays:
[1] = Serum stability test (HPLC); format: in vitro ADME, mouse; conditions: 37 °C; for HPLC chromatogram after 48 h of serum incubation: 25% mouse serum, 48 h vs 10 min; for HPLC chromatogram after 48 h of serum incubation / HPLC peak shape and elution time after 24 h of serum incubation: HPLC 646 nm; for HPLC chromatogram after 48 h of serum incubation / metabolised at 24 h / degradation in serum (in words): n = 3; for metabolised at 24 h: 25% v/v mouse serum in 1× PBS, 10 nmol probe, peak area normalized to 10 min, read-out: percent of the peptides proteolyzed after 24 h of serum incubation; for metabolised at 24 h / degradation in serum (in words): HPLC UV 646 nm; for degradation in serum (in words): 25% v/v mouse serum, 24 h and even after 48 h; for HPLC peak shape and elution time after 24 h of serum incubation: mouse serum
Experimental: Cy5‐labeled peptidomimetic probes (10 nmol) were incubated in 25% v/v mouse serum (Biosharp, BL1053A diluted in 1× PBS) at 37 °C. Aliquots (200 µL) were taken periodically at 0 (deadtime: ≈10 min), 2, 24, and 48 h, and added to 400 µL of 3.75% trichloroacetic acid in acetonitrile at 4 °C. Then, all samples were centrifuged to remove the precipitated serum proteins at 13800 g for 10 min at 4 °C. The supernatant (150 µL) was taken to mix with 550 µL of water (with 0.1% TFA) to centrifuge again at 2630 g for 5 min at 4 °C. Five microliter of the supernatant was mixed with 200 µL of water containing 0.1% TFA as the final samples for HPLC analysis at room temperature monitored by absorbance at 646 nm with the integral area of the intact fraction recorded. The peak area for the 10 min time point was designated as 100% intact, and each peak area at successive time points was normalized to the 10 min peak to calculate the percent compound remaining. All the experiments were repeated three times.

[2] = 25% v/v mouse serum (Biosharp, BL1053A diluted in 1× PBS); conditions: 37 °C, up to 48 h
cartilage = test: In vivo and ex vivo fluorescence imaging of cartilage uptake and retention in nude mice; design: species or system mouse; conditions: 1 nmol i.v., 0-96 h
From the text: All procedures for mouse maintenance and experiments strictly followed the policy of the Experimental Animal Ethics Committee of the Fifth Affiliated Hospital of Sun Yat‐sen University (protocol numbers: 00361, 00436). Balb/c nu mice (male, 10‐18 weeks old) were used for the general in vivo imaging experiments (Figure 3c–f; Figures S10–S14, Supporting Information). For Figure 3g,h and Figure S16 (Supporting Information), neonatal Balb/c mice (7 days old) were used. Female Balb/c mice (74 weeks old versus 12 weeks old) were used in the aged joint imaging experiment reported in Figure 4a–c and Figure S17 (Supporting Information). The RA model was made using female Balb/c mice (6‐8 weeks old) by intraperitoneal injection of an anti‐collagen antibody cocktail (1.5 mg per mouse; Chondrex, 53100) followed by selective subcutaneous injection of lipopolysaccharide (LPS, 12.5 µg per mouse, Chondrex, 53100) into the left hind paw three days later.^[ [30] ^] C57BL/6J mice (male, 6–8 weeks old) were used for the biocompatibility tests (Figures S23–S25, Supporting Information).
(§1) Typically, the fluorescence peptides or peptoids were prepared at a dose of 1 nmol (10 µM in 100 µL of 1× PBS buffer) and injected into the tail vein of each mouse 2 h prior to fluorescence imaging with an IVIS Spectrum imager (PerkinElmer Lumina III). For Figure 4, Figures S17 and S18 (Supporting Information) (joint aging and RA) and Figure S27 (Supporting Information), 2 nmol of Cy5‐(NlysO)7 (20 µM in 100 µL of 1× PBS buffer) were i.v. administered to each mouse. For 1‐week‐old neonatal mice, 1 nmol of Cy5‐(NlysO)7 (20 µM in 50 µL of 1× PBS buffer) was intravenously injected into each mouse. All in vivo imaging was performed 2 h post probe injection with the IVIS Spectrum imager (PerkinElmer, fluorescence: ex/em: 620/670 nm, exposure: 1 s, bing: 4, F/Stop: 2; field of view: A/B/C/Z). Mice were anesthesia with 3% isoflurane (RWD, R510‐22‐10) during image acquisition. Hair in the knee areas was removed before fluorescence imaging for mice in Figure 4a and Figure S17 (Supporting Information). The mice were euthanized following the final image acquisition and occasionally imaged again after skin and organ removal. Next, the airways, ankles, ears, paws, knees, tails, spines, and chest ribs were collected, imaged, and saved for subsequent histology analysis. All acquired fluorescence images were analyzed using the Living Image software (PerkinElmer). The fluorescence signal from each specimen was measured by quantifying the average radiation efficiency within the selected oval‐shaped regions‐of‐interest.
For the cartilage retention experiments (Figures S11 and S12, Supporting Information), Cy5‐(NlysO)7 (10 µM in 100 µL of 1× PBS buffer) was administered via tail vein to four male Balb/c nu mice (10 weeks old) at 2, 24, 48, and 96 h respectively, prior to fluorescence imaging using an IVIS Spectrum imaging system (ex/em: 620/670 nm, exposure: 1 s, bing: 4, F/Stop: 2). Following euthanasia, their cartilaginous tissues were harvested and imaged. The fluorescence images were analyzed and quantified as described above.

[3] = Routine (whole) blood tests after repeated dosing; format: in vivo, mouse; conditions: C57BL/6J mice, 3 weekly i.v. doses of 2 nmol over 14 days, n = 5
Experimental: Whole blood tests: Each C57BL/6J mouse (6–8 weeks old) was intravenously injected with 100 µL of PBS buffer or with each peptide or peptoid probe (2 nmol in 100 µL 1× PBS buffer per mouse) on days 0, 7, and 14. The mice were sacrificed on day 15, 24 h after the final injection. The heart, liver, spleen, lungs, and kidneys were collected from each mouse and processed into formalin‐fixed paraffin‐embedded sections for histological evaluation with H&E staining. Whole blood was collected. Both H&E and blood sample analyses were performed by Wuhan Servicebio.

[4] = Organ fluorescence 2 h post-injection (clearance route); format: in vivo, mouse; conditions: nude mice, organs isolated 2 h post i.v. injection of 1 nmol
Experimental: as §1

## CN1/C(=C/C=C/C=C/C2=[N+](CCCCCC(=O)NCCCCCC(=O)NCC(=O)N3C[C@H](O)C[C@H]3C(=O)NCC(=O)N3C[C@H](O)C[C@H]3C(=O)NCC(=O)N3C[C@H](O)C[C@H]3C(=O)NCC(=O)N3C[C@H](O)C[C@H]3C(=O)NCC(=O)N3C[C@H](O)C[C@H]3C(=O)NCC(=O)N3C[C@H](O)C[C@H]3C(=O)NCC(=O)N3C[C@H](O)C[C@H]3C(N)=O)c3ccc(S(=O)(=O)[O-])cc3C2(C)C)C(C)(C)c2cc(S(=O)(=O)O)ccc21 [Cy5‐(GO)7] ({X1-Ahx}-G[Hyp]G[Hyp]G[Hyp]G[Hyp]G[Hyp]G[Hyp]G[Hyp]-NH2)
[1]
  HPLC chromatogram after 48 h of serum incubation: showed prominent peaks from peptide proteolysis
  metabolised at 24 h: ~25%

## Cy5‐(GNlysO)7
[2]
  serum stability (degradation in mouse serum): hardly degraded in the serum even after 48 h

## Cy5‐Nlys7
[2]
  serum stability (degradation in mouse serum): No significant changes in peak shape and elution time even post 48 h

## CN1/C(=C/C=C/C=C/C2=[N+](CCCCCC(=O)NCCCCCC(=O)NCC(=O)N(CCCCN)CC(=O)N3C[C@H](O)C[C@H]3C(=O)NCC(=O)N(CCCCN)CC(=O)N3C[C@H](O)C[C@H]3C(=O)NCC(=O)N(CCCCN)CC(=O)N3C[C@H](O)C[C@H]3C(=O)NCC(=O)N(CCCCN)CC(=O)N3C[C@H](O)C[C@H]3C(=O)NCC(=O)N(CCCCN)CC(=O)N3C[C@H](O)C[C@H]3C(=O)NCC(=O)N(CCCCN)CC(=O)N3C[C@H](O)C[C@H]3C(=O)NCC(=O)N(CCCCN)CC(=O)N3C[C@H](O)C[C@H]3C(N)=O)c3ccc(S(=O)(=O)[O-])cc3C2(C)C)C(C)(C)c2cc(S(=O)(=O)O)ccc21 [Cy5‐(GNlysO)7] ({X1-Ahx}-G[Nlys][Hyp]G[Nlys][Hyp]G[Nlys][Hyp]G[Nlys][Hyp]G[Nlys][Hyp]G[Nlys][Hyp]G[Nlys][Hyp]-NH2)
cartilage
  in vivo retention in joints and ribs compared to peptide sequences Cy5-(GKO)7 and Cy5-R8: stronger retention in the joints and ribs in vivo
[3]
  routine blood analyses vs PBS control group: None of the measurements
[4]
  clearance route from organ fluorescence: might be mainly cleared through kidneys
[1]
  degradation in serum (in words): hardly degraded
  HPLC peak shape and elution time after 24 h of serum incubation: No significant changes in peak shape and elusion time were noted

## Cy5‐(NlysO)7
[2]
  serum stability (degradation in mouse serum): hardly degraded in the serum even after 48 h

## Cy5‐(GNlys)7
[2]
  serum stability (degradation in mouse serum): hardly degraded in the serum even after 48 h

## CN1/C(=C/C=C/C=C/C2=[N+](CCCCCC(=O)NCCCCCC(=O)N(CCCCN)CC(=O)N(CCCCN)CC(=O)N(CCCCN)CC(=O)N(CCCCN)CC(=O)N(CCCCN)CC(=O)N(CCCCN)CC(=O)N(CCCCN)CC(N)=O)c3ccc(S(=O)(=O)[O-])cc3C2(C)C)C(C)(C)c2cc(S(=O)(=O)O)ccc21 [Cy5‐Nlys7] ({X1-Ahx}-[Nlys][Nlys][Nlys][Nlys][Nlys][Nlys][Nlys]-NH2)
cartilage
  in vivo retention in joints and ribs compared to peptide sequences Cy5-(GKO)7 and Cy5-R8: stronger retention in the joints and ribs in vivo
[3]
  routine blood analyses vs PBS control group: None of the measurements
[4]
  clearance route from organ fluorescence: may be cleared by the ki dneys and liver
[1]
  HPLC peak shape and elution time after 24 h of serum incubation: No significant changes in peak shape and elusion time were noted

## CN1/C(=C/C=C/C=C/C2=[N+](CCCCCC(=O)NCCCCCC(=O)NCC(=O)N(CCCCN)CC(=O)NCC(=O)N(CCCCN)CC(=O)NCC(=O)N(CCCCN)CC(=O)NCC(=O)N(CCCCN)CC(=O)NCC(=O)N(CCCCN)CC(=O)NCC(=O)N(CCCCN)CC(=O)NCC(=O)N(CCCCN)CC(N)=O)c3ccc(S(=O)(=O)[O-])cc3C2(C)C)C(C)(C)c2cc(S(=O)(=O)O)ccc21 [Cy5‐(GNlys)7] ({X1-Ahx}-G[Nlys]G[Nlys]G[Nlys]G[Nlys]G[Nlys]G[Nlys]G[Nlys]-NH2)
cartilage
  in vivo retention in joints and ribs compared to peptide sequences Cy5-(GKO)7 and Cy5-R8: stronger retention in the joints and ribs in vivo
[3]
  routine blood analyses vs PBS control group: None of the measurements
[4]
  clearance route from organ fluorescence: may be cleared by the ki dneys and liver
[1]
  degradation in serum (in words): hardly degraded
  HPLC peak shape and elution time after 24 h of serum incubation: No significant changes in peak shape and elusion time were noted

## CN1/C(=C/C=C/C=C/C2=[N+](CCCCCC(=O)NCCCCCC(=O)NCC(=O)N[C@@H](CCCCN)C(=O)N3C[C@H](O)C[C@H]3C(=O)NCC(=O)N[C@@H](CCCCN)C(=O)N3C[C@H](O)C[C@H]3C(=O)NCC(=O)N[C@@H](CCCCN)C(=O)N3C[C@H](O)C[C@H]3C(=O)NCC(=O)N[C@@H](CCCCN)C(=O)N3C[C@H](O)C[C@H]3C(=O)NCC(=O)N[C@@H](CCCCN)C(=O)N3C[C@H](O)C[C@H]3C(=O)NCC(=O)N[C@@H](CCCCN)C(=O)N3C[C@H](O)C[C@H]3C(=O)NCC(=O)N[C@@H](CCCCN)C(=O)N3C[C@H](O)C[C@H]3C(N)=O)c3ccc(S(=O)(=O)[O-])cc3C2(C)C)C(C)(C)c2cc(S(=O)(=O)O)ccc21 [Cy5‐(GKO)7] ({X1-Ahx}-GK[Hyp]GK[Hyp]GK[Hyp]GK[Hyp]GK[Hyp]GK[Hyp]GK[Hyp]-NH2)
[4]
  clearance route from organ fluorescence: might be mainly cleared through kidneys
[1]
  HPLC chromatogram after 48 h of serum incubation: showed prominent peaks from peptide proteolysis
  metabolised at 24 h: ~25%

Source: PMC12631873 (Advanced Science, 2025)
